This is an account of results in article PMC10301603, “Potent and Selective Benzothiazole-Based Antimitotics with Improved Water Solubility: Design, Synthesis, and Evaluation as Novel Anticancer Agents” (Pharmaceutics, 2023).

A short description of data set [1]: Aqueous solubility, shake-flask method. The class given is physicochemical. Conditions: pH 7.0 buffer, pH 7, aqueous buffer, thermodynamic from solid, shaking flask, buffered media at pH 7.0, mean of three. In a few lines:
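Concentration read by UV at maximum absorbance wavelength, interpolated on each compound's own calibration line, mean of three independent runs. Samples were suspensions of 5 mg in 500 µL pH 7.0 buffer, stirred at room temperature for 72 h and filtered before reading.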

For data set [2] the following is noted: cited from earlier work.
In a further data set the test system is bovine brain tubulin. Put plainly: Tubulin polymerization inhibition (turbidimetry). It counts as biochemical. The following applies: concentration inhibiting 50% of microtubular protein polymerization in vitro; read-out: TPI IC50. The gist of the method: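 Turbidimetric assay using calf-brain microtubular protein: polymerization started by a shift from 4 °C to 37 °C and followed by absorbance at 450 nm. Percent inhibition calculated against a ligand-free control; IC50 determined only for compounds giving >50% inhibition at 10 µM. Triplicates in two independent experiments using separate protein preparations.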

Each structure is given as a SMILES string. ≈ marks a conversion by molar mass, not a printed value.

Usually solubility stands for how much of the substance goes into solution per volume. A lower solubility goes with little dissolved substance. By IC50 is commonly meant the concentration that inhibits the measured activity by half.

`COc1ccc(/C=C\c2cc(OC)c(OC)c(OC)c2)cc1O` [CA-4, combretastatin A-4, reference compound]: the concentration in solution in data set [1] (solubility at 72 h) came to 1.1 µg/mL (≈ 3.48 µM). In addition, the water solubility in data set [2] is given as 1 µg/mL (≈ 3.16 µM). In addition, the 50% inhibitory concentration (IC50) with bovine brain tubulin is […].
